Test results: patent publication US10703756B2, “Pyrrolo[2,3-D]pyrimidinyl, pyrrolo[2,3-B]pyrazinyl, pyrrolo[2,3-B]pyridinyl acrylamides and epoxides thereof” (Pfizer Inc., priority 2015, dated 2020)

Tests used:
[1] = target: T1, JAK3 enzyme (Homo sapiens, UniProt P52333); test: JAK Caliper Enzyme Assay at 4 μM ATP; assay type: biochemical
T1 sequence (P52333 1-1124): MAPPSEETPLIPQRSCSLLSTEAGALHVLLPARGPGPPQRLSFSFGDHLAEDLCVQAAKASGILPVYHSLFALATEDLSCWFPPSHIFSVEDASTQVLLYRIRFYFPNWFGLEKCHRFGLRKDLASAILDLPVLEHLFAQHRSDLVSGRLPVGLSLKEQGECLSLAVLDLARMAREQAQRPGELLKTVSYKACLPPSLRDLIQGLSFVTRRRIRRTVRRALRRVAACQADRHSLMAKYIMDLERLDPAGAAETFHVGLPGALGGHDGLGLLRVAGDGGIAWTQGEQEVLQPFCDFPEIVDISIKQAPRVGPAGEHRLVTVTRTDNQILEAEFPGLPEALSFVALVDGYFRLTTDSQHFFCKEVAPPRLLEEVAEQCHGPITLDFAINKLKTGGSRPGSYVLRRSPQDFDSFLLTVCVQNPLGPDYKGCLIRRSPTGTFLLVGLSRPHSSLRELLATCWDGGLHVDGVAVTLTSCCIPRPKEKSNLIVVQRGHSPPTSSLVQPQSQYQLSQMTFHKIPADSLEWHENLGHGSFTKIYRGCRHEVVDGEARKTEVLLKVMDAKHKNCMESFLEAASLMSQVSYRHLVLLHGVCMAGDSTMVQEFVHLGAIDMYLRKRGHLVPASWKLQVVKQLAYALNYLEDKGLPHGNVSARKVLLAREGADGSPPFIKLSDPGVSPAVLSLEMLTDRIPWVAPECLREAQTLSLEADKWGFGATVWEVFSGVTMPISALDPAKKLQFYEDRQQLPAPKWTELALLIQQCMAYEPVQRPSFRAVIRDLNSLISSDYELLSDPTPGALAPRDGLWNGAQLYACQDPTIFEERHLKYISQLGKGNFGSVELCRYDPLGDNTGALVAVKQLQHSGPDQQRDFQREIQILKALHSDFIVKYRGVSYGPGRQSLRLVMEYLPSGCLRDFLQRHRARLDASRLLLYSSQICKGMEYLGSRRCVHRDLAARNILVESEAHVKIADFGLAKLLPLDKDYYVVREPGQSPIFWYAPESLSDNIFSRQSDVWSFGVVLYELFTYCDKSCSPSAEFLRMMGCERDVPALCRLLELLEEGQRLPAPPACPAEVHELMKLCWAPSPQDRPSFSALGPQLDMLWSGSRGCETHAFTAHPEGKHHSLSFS
Protocol: (§1) Test article was solubilized in dimethyl sulfoxide (DMSO) to a stock concentration of 30 mM. An 11-point half log dilution series was created in DMSO with a top concentration of 600 μM. […] Test article and assay controls were added to a 384-well plate. […] Enzyme concentrations and incubation times were optimized for each new enzyme preps and were modified slightly over time to ensure 20%-30% phosphorylation. […] The assay plates were placed on a Caliper Life Science Lab Chip 3000 (LC3000) instrument, and each well was sampled using appropriate separation conditions to measure the unphosphorylated and phosphorylated peptide.

[2] = target: T1, JAK3 enzyme; test: JAK Caliper Enzyme Assay at 1 mM ATP; assay type: biochemical
Protocol: as §1

## C=CC(=O)N1CCC(COc2cnc3[nH]cc(C(=O)N[C@@H](C)COC)c3n2)C1 (mixture of isomers) [Example 10, Racemic-2-[(1-acryloylpyrrolidin-3-yl)methoxyl]-N-[(2S)-1-methoxypropan-2-yl]-5H-pyrrolo[2,3-b]pyrazine-7-carboxamide]
[1]
  IC50: 2.77 nM
[2]
  IC50: 632 nM

## C=CC(=O)N1CCC(Nc2cnc3[nH]cc(C(=O)NCCC(F)(F)F)c3n2)CC1C (racemic) [Example 22, Cis-racemic 2-{[1-acryloyl-2-methylpiperidin-4-yl]amino}-N-(3,3,3-trifluoropropyl)-5H-pyrrolo[2,3-b]pyrazine-7-carboxamide]
[1]
  IC50: 1.29 nM
[2]
  IC50: 134 nM

## C=CC(=O)N1CCC(N(C)c2cnc3[nH]cc(C(=O)NCC)c3n2)C1 (racemic) [Example 28, Racemic-2-[(1-acryloylpyrrolidin-3-yl)(methyl)amino]-N-ethyl-5H-pyrrolo[2,3-b]pyrazine-7-carboxamide]
[1]
  IC50: 13.7 nM
[2]
  IC50: 1160 nM

## C=CC(=O)N1CCC(Oc2cnc3[nH]cc(C(C)O)c3n2)CC1 (racemic) [Example 117]
[1]
  IC50: 11.9 nM
[2]
  IC50: 1490 nM

## C=CC(=O)N1CCN(c2cnc3[nH]cc(C(=O)NC(CO)c4cccc(F)c4)c3n2)CC1(C)C (racemic) [Example 136, Racemic-2-(4-acryloyl-3,3-dimethylpiperazin-1-yl)-N-[1-(3-fluorophenyl)-2-hydroxyethyl]-5H-pyrrolo[2,3-b]pyrazine-7-carboxamide]
[1]
  IC50: 5.82 nM
[2]
  IC50: 632 nM

## C=CC(=O)N1CCN(c2cnc3[nH]cc(C(=O)NC4COCc5ccccc54)c3n2)CC1(C)C (racemic) [Example 144, Racemic-2-(4-acryloyl-3,3-dimethylpiperazin-1-yl)-N-(3,4-dihydro-1H-isochromen-4-yl)-5H-pyrrolo[2,3-b]pyrazine-7-carboxamide]
[1]
  IC50: 3.32 nM
[2]
  IC50: 430 nM

## C=CC(=O)N1CCN(c2cnc3[nH]cc(C(=O)NC(CO)c4ccccc4F)c3n2)CC1(C)C (racemic) [Example 154, Racemic-2-(4-acryloyl-3,3-dimethylpiperazin-1-yl)-N-[1-(2-fluorophenyl)-2-hydroxyethyl]-5H-pyrrolo[2,3-b]pyrazine-7-carboxamide]
[1]
  IC50: 4.68 nM
[2]
  IC50: 590 nM

## C=CC(=O)N1CCN(c2cnc3[nH]cc(C(=O)NC(CO)CCCC)c3n2)CC1(C)C (racemic) [Example 155, Racemic-2-(4-acryloyl-3,3-dimethylpiperazin-1-yl)-N-(1-hydroxyhexan-2-yl)-5H-pyrrolo[2,3-b]pyrazine-7-carboxamide]
[1]
  IC50: 4.92 nM
[2]
  IC50: 721 nM

## C=CC(=O)N1CCN(c2cnc3[nH]cc(C(=O)NC4CCOC4)c3n2)CC1(C)C (racemic) [Example 164, Racemic-2-(4-acryloyl-3,3-dimethylpiperazin-1-yl)-N-(tetrahydrofuran-3-yl)-5H-pyrrolo[2,3-b]pyrazine-7-carboxamide]
[1]
  IC50: 4.34 nM
[2]
  IC50: 726 nM

## C=CC(=O)N1CCN(c2cnc3[nH]cc(C(=O)NC(CO)c4ccc(F)cc4)c3n2)CC1(C)C (racemic) [Example 165, Racemic-2-(4-acryloyl-3,3-dimethylpiperazin-1-yl)-N-[1-(4-fluorophenyl)-2-hydroxyethyl]-5H-pyrrolo[2,3-b]pyrazine-7-carboxamide]
[1]
  IC50: 10.7 nM
[2]
  IC50: 957 nM

## C=CC(=O)N1CCC(Oc2cnc3[nH]cc(C(=O)NCC4(O)CCC(C)C4)c3n2)CC1 (racemic) [Example 201, Racemic-2-[(1-acryloylpiperidin-4-yl)oxy]-N-[(1-hydroxy-3-methylcyclopentyl)methyl]-5H-pyrrolo[2,3-b]pyrazine-7-carboxamide]
[1]
  IC50: 3.62 nM
[2]
  IC50: 411 nM

## C=CC(=O)N1CCC(Oc2cnc3[nH]cc(C(=O)NCC4(O)CCCC[C@@H]4F)c3n2)CC1 (mixture of isomers) [Example 224, Racemic-2-[(1-acryloylpiperidin-4-yl)oxy]-N-{[(2S)-2-fluoro-1-hydroxycyclohexyl]methyl}-5H-pyrrolo[2,3-b]pyrazine-7-carboxamide]
[1]
  IC50: 3.54 nM
[2]
  IC50: 526 nM

## C=CC(=O)N1CCC(Oc2cnc3[nH]cc(C(=O)NCC4(O)CC[C@@H](C)C4)c3n2)CC1 (mixture of isomers) [Example 226]
[1]
  IC50: 2.12 nM
[2]
  IC50: 430 nM

## C=CC(=O)N1CCC(Nc2cnc3[nH]cc(C(=O)NCC(C)(C)C)c3n2)CC1C (racemic) [Example 267, Racemic-2-[(1-acryloyl-2-methylpiperidin-4-yl)amino]-N-(2,2-dimethylpropyl)-5H-pyrrolo[2,3-b]pyrazine-7-carboxamide]
[1]
  IC50: 4.99 nM
[2]
  IC50: 802 nM

## C=CC(=O)N1CCC(Nc2cnc3[nH]cc(C(=O)N[C@@H]4C[C@H]4C(F)(F)F)c3n2)CC1C (mixture of isomers) [Example 337, Racemic-2-[(1-acryloyl-2-methylpiperidin-4-yl)amino]-N-[(1R,2R)-2-(trifluoromethyl)cyclopropyl]-5H-pyrrolo[2,3-b]pyrazine-7-carboxamide]
[1]
  IC50: 14.4 nM
[2]
  IC50: 1840 nM

## C=CC(=O)N1CC[C@@H](OC)[C@@H](Nc2cnc3[nH]cc(C(=O)N[C@H](C)COC)c3n2)C1 (single isomer, unassigned) [Example 5]
[1]
  IC50: 0.408 nM
[2]
  IC50: 46 nM

## C=CC(=O)N1CC[C@H](OC)[C@H](Nc2cnc3[nH]cc(C(=O)N[C@H](C)COC)c3n2)C1 (single isomer, unassigned) [Example 6]
[1]
  IC50: 10.1 nM
[2]
  IC50: 1320 nM

## C=CC(=O)N1CCC[C@@H]1COc1cnc2[nH]cc(C(=O)N[C@@H](C)COC)c2n1 (single isomer, unassigned) [Example 9]
[1]
  IC50: 8.86 nM
[2]
  IC50: 1210 nM

## C=CC(=O)N1CC[C@@H](COc2cnc3[nH]cc(C(=O)N[C@@H](C)COC)c3n2)C1 (single isomer, unassigned) [Example 12]
[1]
  IC50: 5.28 nM
[2]
  IC50: 766 nM

## C=CC(=O)N1CC[C@@H](COc2cnc3[nH]cc(C(=O)N[C@H](C)COC)c3n2)C1 (single isomer, unassigned) [Example 14]
[1]
  IC50: 54.8 nM
[2]
  IC50: 3010 nM

## C=CC(=O)N1CC[C@H](COc2cnc3[nH]cc(C(=O)N[C@H](C)COC)c3n2)C1 (single isomer, unassigned) [Example 15]
[1]
  IC50: 31.4 nM
[2]
  IC50: 3280 nM

## C=CC(=O)N1CC[C@@H](CNc2cnc3[nH]cc(C(=O)N[C@H](C)COC)c3n2)C1 (single isomer, unassigned) [Example 20]
[1]
  IC50: 5.42 nM
[2]
  IC50: 926 nM

## C=CC(=O)N1CC[C@H](CNc2cnc3[nH]cc(C(=O)N[C@H](C)COC)c3n2)C1 (single isomer, unassigned) [Example 21]
[1]
  IC50: 4.69 nM
[2]
  IC50: 633 nM

## C=CC(=O)N1CC[C@@H](Nc2cnc3[nH]cc(C(=O)NCCC(F)(F)F)c3n2)C[C@H]1C (single isomer, unassigned) [Example 23]
[1]
  IC50: 3.58 nM
[2]
  IC50: 651 nM

## C=CC(=O)N1CC[C@@H](N(C)c2cnc3[nH]cc(C(=O)NCC)c3n2)C1 (single isomer, unassigned) [Example 29]
[2]
  IC50: 8310 nM

## C=CC(=O)N1CC[C@H](N(C)c2cnc3[nH]cc(C(=O)NCC)c3n2)C1 (single isomer, unassigned) [Example 30]
[1]
  IC50: 6.86 nM
[2]
  IC50: 865 nM

## C=CC(=O)N1CCCC(Nc2cnc3[nH]cc(C(=O)NCC)c3n2)C1 (single isomer, unassigned) [Example 35]
[1]
  IC50: 6.77 nM
[2]
  IC50: 621 nM

## C=CC(=O)N1C[C@H](Nc2ncnc3[nH]ccc23)CC[C@@H]1CNC(C)=O (single isomer, unassigned) [Example 89]
[1]
  IC50: 76.4 nM
[2]
  IC50: 7670 nM

## C=CC(=O)N1C[C@H](Nc2ncnc3[nH]ccc23)CC[C@@H]1COC (single isomer, unassigned) [Example 92]
[1]
  IC50: 20.9 nM
[2]
  IC50: 2440 nM

## C=CC(=O)N1C[C@@H](Nc2ncnc3[nH]ccc23)CC[C@H]1COC (single isomer, unassigned) [Example 93]
[1]
  IC50: 711 nM
[2]
  IC50: > 3160 nM

## C=CC(=O)N1C[C@@H](Nc2ncnc3[nH]ccc23)CC[C@H]1COC (single isomer, unassigned) [Example 96]
[1]
  IC50: 433 nM
[2]
  IC50: > 10000 nM
